Data: patent publication US20250195412A1, “PHARMACEUTICAL FORMULATIONS OF R-KETAMINE” (priority 2022, published 2025)
In brackets after ≈: the same amount, converted by molar mass. Several values for one entry are separate records, joined by “and”; a condition that tells them apart may be missing. Equal values may be shown once. Entries after “also recorded” stand apart in the source; their conditions may differ.

Columns and labels:
[1] = Phosphate buffer: content of filtered sample by HPLC, visual precipitation; format: physicochemical
Procedure: (§1) The ingredients for a 20 mM buffer and the appropriate amount of R-ketamine HCl (60 mg/ml, equaling 52.2 mg/ml free base) were weighed together and diluted in water for injection. Subsequently, the pH was adjusted, e.g. to 5.2. After filling up to the target volume, the mixture was stirred for a defined time and a sample was obtained under filtration (0.22 μm). This sample was analyzed for content by HPLC and for tonicity by freezing point depression.
(§2) Based on the previous results from the citrate buffer series experiment, the experiments with the phosphate buffer could be limited to pH 5.8. The nominal concentrations 60 and 70 mg/ml were investigated.
(§3) The solution was prepared and tested as described for the citrate buffer.

[2] = Log P (general properties)
[3] = pH dependence of solubility / precipitation of the free base in water; format: physicochemical
Procedure: From pH 5.5, the free base consequently precipitates, if this is not prevented by the addition of suitable excipients.
(§4) One finding from the previous Examples was that there is a range between pH 5 and 6 in which 60 mg/ml API can be dissolved. Strong precipitation of the free base only occurs above a pH of 5.9 according to the observation. Based on this observation, it was decided to investigate two compendial buffer systems (citrate and phosphate buffer) for their ability to hold 60 mg/ml of R-ketamine in solution and stabilize the formulation against pH shifts. Another change was that the pH adjustment was done with 0.15 N NaOH instead of 1 N NaOH in the following experiments. This change was underdone because there were concerns that the very alkaline microenvironment around the drops of sodium hydroxide solution would lead to the formation of flakes that were difficult to dissolve.
The solubility of R-ketamine is strongly pH dependent. In the acidic pH range, the active ingredient is readily soluble, while precipitation occurs at pH values greater than 5.7-5.9. A careful choice of formulation parameters allows the requirements of the application route to be reconciled with the dissolution behavior of the active ingredient. The way in which the pH is adjusted also has a major influence. By using low-concentration alkalis, the formation of highly alkaline microenvironments around the dropping point could be avoided. This prevents the formation of active ingredient flocs that are difficult to dissolve again.

[4] = Citrate buffer: content of filtered sample by HPLC, visual precipitation; format: physicochemical
Procedure: as §4, §1

[5] = Phosphate buffer: tonicity by freezing point depression; format: physicochemical
Procedure: as §1, §2, §3

[6] = Citrate buffer: tonicity by freezing point depression; format: physicochemical
Procedure: as §4, §1

[7] = Cosolvent screening: assay of filtered sample by HPLC; format: physicochemical
Procedure: (§5) For cosolvent screening, a set of possible candidates was identified. Specifically, 5% sulfobutyl-ether-β-cyclodextrin (SBE7), polyethylene glycol 400 (PEG 400), glycerol, propylene glycol, and 5% polysorbate 80 were to be screened at pH 5 and 6. Unless otherwise specified, cosolvents were screened at 20% and 50% (m/V). As a control, the solubility of R-ketamine in water was studied at pH 5 and 6.
(§6) The test solution consisting of water for injection. The respective cosolvent was prepared and the active substance was dissolved to a nominal concentration of 100 mg/ml (equaling 86.96 mg/ml free base). The pH was then adjusted to pH 5 with 1N NaOH and a sample was obtained under filtration (0.22 μm). Thereafter, the pH was further increased to pH 6 and another sample was taken (also filtered). Both samples were analyzed for assay and tonicity by HPLC and freezing point depression.
(§7) • Batch size: 90 g/pH set at end of compounding (1N NaOH/1N HCl)

[8] = Cyclodextrin inclusion: tonicity by freezing point depression; format: physicochemical
Procedure: (§8) The effect of hydroxypropyl β-cyclodextrin (HPB) on the solubility of R-ketamine at different pH values was investigated. Varied factors were pH of the solution and the concentration of HPB. Response factors were tonicity, which was determined by freezing point depression, and API content, which was measured by HPLC, of a filtered (0.22 μm) solution.
(§9) After dissolving the active ingredient (100 mg/ml, 86.96 mg/ml free base), a defined amount of HPB was added. After complete solution of the two components, the target pH was adjusted with sodium hydroxide solution (1 M). The resulting solution was filtered through a syringe filter (0.22 μm) and analyzed by HPLC and freezing point depression. A separate protocol was prepared for each individual experiment.

[9] = Hygroscopicity, DVS experiments; format: physicochemical; settings: between 50% RH to 90% RH in DVS experiments
[10] = Cosolvent screening: tonicity by freezing point depression; format: physicochemical
Procedure: as §5, §6, §7

[11] = Cyclodextrin inclusion: API content of filtered solution by HPLC; format: physicochemical; settings: nominal 100 mg/ml (86.96 mg/ml free base)
Procedure: as §8, §9

[12] = pH 5.5
[13] = Orientative stability examination of phosphate-buffered formulation, room temperature storage; format: physicochemical; settings: 60 mg/mL in phosphate buffer pH 5.8, room temperature, two weeks
[14] = pKa (general properties)
[15] = Solubility profile in solvents
[16] = Initial tests with maleic acid buffering: dissolution behaviour and pH; format: physicochemical
Procedure: Due to its ability to act as a buffer in the acidic to neutral range, a 0.02 M aqueous maleic acid solution was proposed as the base formulation. The aim was to investigate the dissolving capacity for R-ketamine in the concentration range of 60, 80 and 100 mg/ml at pH 5.5 and 5.7 (after the feasibility test with a pH of 5.8 had to be considered as failed) and the stability of the formulations in a study for four weeks.
In an initial feasibility test, the dissolution behaviour of R-ketamine was investigated in the presence of maleic acid. Pure water was used as a comparison. In an aqueous solution of 60 mg/ml R-ketamine without buffering, a pH of 4.65 was obtained. If the same amount of R-ketamine was dissolved in a 0.02 M maleic acid buffer adjusted to pH 5.75, the pH decreased to a value of 5.38.

[17] = phosphate buffer pH 5.8, nominal 60 mg/ml (52.2 mg/ml free base)
[18] = phosphate buffer pH 5.8, nominal 70 mg/ml (60.9 mg/ml free base)
[19] = 60 mg/ml in 20 mM citrate buffer, pH 5.4
[20] = 60 mg/ml in 20 mM citrate buffer, pH 5.6
[21] = 60 mg/ml in 20 mM citrate buffer, pH 5.8
[22] = 70 mg/ml (60.9 mg/ml free base) in citrate buffer, pH 5.8
[23] = Cyclodextrin (HPB) 20 %, pH 4.5
[24] = Cyclodextrin (HPB) 20 %, pH 7.5

SMILES: CN[C@@]1(c2ccccc2Cl)CCCCC1=O [R-ketamine, (2R)-2-(2-chlorophenyl)-2-(methylamino)cyclohexan-1-one]
- Assay [1, 17]: 51.2 mg/ml free base
- Assay [1, 18]: 59.7 mg/ml free base
- visible precipitation after pH adjustment and filtration ([1]; phosphate buffer pH 5.8, nominal 60 and 70 mg/ml): no visible precipitation
- logP [2]: 2.18
- pH from which the free base precipitates ([3]; in water, without suitable excipients, Henderson-Hasselbalch, FIG. 1): ≥ 5.5
- pH above which precipitation of the free base occurs ([3]; observed in the experiments): > 5.9 and 5.7-5.9
- API that can be dissolved ([3]; range between pH 5 and 6): 60 mg/mL
- Assay ([4]; 60 mg/ml (52.2 mg/ml free base) in 20 mM citrate buffer, pH 5.2): 46.2 mg/mL
- Assay [4, 19]: 46.1 mg/mL
- Assay [4, 20]: 46.4 mg/mL
- Assay [4, 21]: 47.2 mg/mL
- visual precipitation ([4]; 60 mg/ml in citrate buffer, pH 5.2-5.8): no precipitation could be detected visually
- content found ([4]; 60 mg/ml in citrate buffer, range of pH 5.2-5.8): about 46.5 mg/ml
- Assay [4, 22]: 46.2 mg/mL
- precipitation after pH adjustment [4, 22]: precipitation was observed
- Tonicity [5, 17]: 476 mOsmol/kg
- Tonicity [5, 18]: 545 mOsmol/kg
- Tonicity ([6]; 60 mg/ml in 20 mM citrate buffer, pH 5.2): 534 mOsmol/kg
- Tonicity [6, 19]: 540 mOsmol/kg
- Tonicity [6, 20]: 546 mOsmol/kg
- Tonicity [6, 21]: 561 mOsmol/kg
- Tonicity ([6]; 70 mg/ml in citrate buffer, pH 5.8): 556 mOsmol/kg
- Assay ([7]; Glycerol 20%, pH 6.0): 19.1 mg/mL
- Assay ([7]; Glycerol 50%, pH 6.0): 20.2 mg/mL
- Assay ([7]; PEG 20%, pH 6.0): 19.9 mg/mL
- Assay ([7]; PEG 50%, pH 6.0): 21.6 mg/mL
- Assay ([7]; Propylene glycol 20%, pH 6.0): 24.5 mg/mL
- Assay ([7]; Propylene glycol 50%, pH 6.0): 46.5 mg/mL
- Assay ([7]; Tween 5%, pH 5.0): 89.2 mg/mL
- Assay ([7]; Tween 5%, pH 6.0): 18.8 mg/mL
- Assay ([7]; Water for injection, pH 5.0, nominal 100 mg/ml (86.96 mg/ml free base)): 88.6 mg/mL
- Assay ([7]; Water for injection, pH 6.0): 19.7 mg/mL
- Tonicity ([8]; Cyclodextrin (HPB) 0 %, pH 4.5): 644 mOsmol
- Tonicity ([8]; Cyclodextrin (HPB) 0 %, pH 7.5): 522 mOsmol
- Tonicity ([8]; Cyclodextrin (HPB) 10 %, pH 6): 680 mOsmol and 683 mOsmol
- Tonicity [8, 23]: 638 mOsmol
- Tonicity [8, 24]: 546 mOsmol
- Hygroscopicity [9]: Not hygroscopic, no moisture uptake
- Tonicity ([10]; Glycerol 20%, pH 6.0): 1445 mOsmol
- Tonicity ([10]; PEG 20%, pH 6.0): 695 mOsmol
- Tonicity ([10]; Tween 5%, pH 5.0): 686 mOsmol
- Tonicity ([10]; Tween 5%, pH 6.0): 602 mOsmol
- Tonicity ([10]; Water for injection, pH 5.0): 651 mOsmol
- Tonicity ([10]; Water for injection, pH 6.0): 568 mOsmol
- Assay ([11]; Cyclodextrin (HPB) 0 %, pH 4.5): 88.9 mg/mL
- Assay ([11]; Cyclodextrin (HPB) 0 %, pH 7.5): 0.9 mg/mL
- Assay ([11]; Cyclodextrin (HPB) 10 %, pH 6): 26.8 mg/mL and 29.6 mg/mL
- Assay [11, 23]: 93.9 mg/mL
- Assay [11, 24]: 11.1 mg/mL
- decrease of pH over the study, average [12]: 0.2 pH units
- four-week stability assay [12]: satisfactory stability
- shelf life / precipitation on storage [13]: fine crystalline precipitate was observed; also recorded: precipitation
- pKa [14]: 7.5
- Solubility Classification (EP) ([15]; 1-propanol): Sparingly soluble
- solubility ([15]; 1-propanol, organic solvent or mixture): 13 to 15 mg/mL (≈ 54.7 to 63.1 mM)
- Solubility Classification (EP) ([15]; 2-propanol): Slightly soluble
- solubility ([15]; 2-propanol, organic solvent or mixture): ~4 mg/mL (≈ 16.8 mM)
- Solubility Classification (EP) ([15]; Acetone, acetonitrile, anisole, ethyl acetate, heptane, methyl ethyl ketone, methyl iso-butyl ketone, tetrahydrofuran, methyl tert-butyl ether): Very slightly soluble
- Solubility Classification (EP) ([15]; DMSO, Ethanol): Sparingly soluble
- solubility ([15]; DMSO, ethanol, organic solvent or mixture): 20 to 30 mg/mL (≈ 84.1 to 126 mM)
- Solubility Classification (EP) ([15]; Methanol): Soluble
- Solubility Classification (EP) ([15]; Water): Freely soluble
- solubility ([15]; methanol, organic solvent or mixture): 50 to 100 mg/mL (≈ 210 to 421 mM)
- solubility ([15]; organic solvent or mixture): < 1 mg/mL
- solubility ([15]; water): > 140 mg/mL
- solubility ([15]; water, pH 4, water): > 140 mg/mL
- pH after dissolving ([16]; 60 mg/ml in 0.02 M maleic acid buffer adjusted to pH 5.75): 5.38
- pH obtained ([16]; aqueous solution of 60 mg/ml R-ketamine without buffering): 4.65
- precipitation on raising the pH to 5.8 ([16]; maleic acid buffer, pH raised to 5.8 with 0.15 M NaOH): without precipitation
